According to paper PMC11579945, “Identification of Potential Inhibitors of Mycobacterium tuberculosis Amidases: An Integrated In Silico and Experimental Study” (ACS Omega, 2024):
Several values for one entry are separate records, joined by “and”; a condition that tells them apart may be missing. Equal values may be shown once.

Experiments:
Ami1 [1] = molecular target: T1, Ami1 (Mycobacterium tuberculosis, UniProt I6Y4D2); assay: Differential scanning fluorimetry (DSF, thermal shift) with Ami1; type: binding; conditions: for Kd: 10 μM Ami1, fitted with Thermott, triplicate, read-out: dissociation constant (Kd); for increase of the melting temperature (Tm) of the amidase: compared to Tm of the protein in the absence of any compound
T1 sequence (I6Y4D2 25-241 limits assumed): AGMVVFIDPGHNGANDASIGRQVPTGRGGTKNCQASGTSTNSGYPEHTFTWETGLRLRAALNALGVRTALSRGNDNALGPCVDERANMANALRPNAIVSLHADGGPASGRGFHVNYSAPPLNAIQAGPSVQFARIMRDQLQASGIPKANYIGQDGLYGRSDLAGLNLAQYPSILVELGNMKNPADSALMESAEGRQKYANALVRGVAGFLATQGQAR
Protocol: DSF assays were conducted using a QuantStudio3 real-time PCR system from Thermo Fisher Scientific, with a MicroAmp Fast 96-well reaction plate and covered with the MicroAmp Optical Adhesive Film (both from Thermo Fisher Scientific). The final reaction volume in each well was 20 μL, containing 10 μM Ami1 in buffer (20 mM HEPES pH 7.5, 100 mM NaCl, 1% DMSO) and 5× SYPRO Orange, either in the absence or presence of various concentrations of compounds. As a control, identical experiments were performed without protein. The temperature was increased from 25 to 99 °C at a gradual rate of 0.2 °C per 12.5 s. Data analysis and dissociation constants (Kd) were determined using the Thermott web application (https://thermott.com).[37],[38] Melting curves were exported from Thermott and visualized using the GraphPad Prism program. All experiments were performed by triplicate.

Ami1 [2] = molecular target: T1, Ami1; conditions: 10 mM EDTA; cited from earlier work
Ami1 [3] = molecular target: T1, Ami1; type: binding; conditions: ITC
Ami1Mab = tested on: Ami1Mab; parameters: method as in PMID 33158165; conditions: cited from earlier work

For `O=C(NNc1ccc([N+](=O)[O-])cc1[N+](=O)[O-])c1ccccc1` [1a, N′-(2,4-Dinitrophenyl)benzohydrazide], the Kd (Ami1 [1]; DSF) was 2.71 ± 0.55 µM.

For `COc1ccc(C(=O)NNc2ccc([N+](=O)[O-])cc2[N+](=O)[O-])cc1` [1b, N′-(2,4-Dinitrophenyl)-4-methoxybenzohydrazide], the Kd (Ami1 [1]; DSF) was 4.27 ± 1.13 µM.

For `O=C(NNc1ccc([N+](=O)[O-])cc1[N+](=O)[O-])c1ccc(Cl)cc1` [1c, 4-Chloro-N′-(2,4-dinitrophenyl)benzohydrazide], the Kd (Ami1 [1]; DSF) was 9.07 ± 1.88 µM.

Work on `O=C(NNc1ccc([N+](=O)[O-])cc1[N+](=O)[O-])c1ccc(F)cc1` [1d, N′-(2,4-Dinitrophenyl)-4-fluorobenzohydrazide] yielded a Kd (Ami1 [1]; DSF) of 1.65 ± 0.39 µM.

For `O=C(C=Cc1ccccc1)NNc1ccc([N+](=O)[O-])cc1[N+](=O)[O-]` [1e, N′-(2,4-Dinitrophenyl)cinnamohydrazide], the “increase in Kd compared with derivates 1a–1d” value (Ami1 [1]; DSF) was 10 fold and the Kd (Ami1 [1]; DSF) was 36.1 ± 7.1 µM.

With `O=C(NNc1ccc([N+](=O)[O-])cc1[N+](=O)[O-])C1CC1` [1f, N′-(2,4-Dinitrophenyl)cyclopropanecarbohydrazide] the “interaction with Ami1” value (Ami1 [1]; DSF dose-response) was “no interaction”.

In the case of `O=C(O)CN(CCN(CC(=O)O)CC(=O)O)CC(=O)O` [EDTA], the “hydrolytic activity of Ami1 after treatment” value (Ami1 [2]) is listed as “abolished”.

For `O=C(NNc1ccc([N+](=O)[O-])cc1[N+](=O)[O-])C1CC1c1ccccc1` (stereo not shown) [compound 1], the Kd (Ami1 [1]; DSF) was 6.69 ± 0.79 µM and the “increase of the melting temperature (Tm) of the amidase” value (Ami1 [1]) was “approximately 2 °C”.

With `Ic1ccccc1-c1nn[nH]n1` [compound 5] the ΔGb (Ami1 [3]; 25 °C, pH 7.5) was “–6.02 kcal/mol”, the ΔHb (Ami1 [3]; 25 °C, pH 7.5) was “–0.37 ± 0.08 kcal/mol” and the “n (stoichiometry)” value (Ami1 [3]; single binding-site model) was 0.7 and 0.7 ± 0.1. The Kd (Ami1 [1]; DSF) was 39 ± 6.1 µM and the “increase of the melting temperature (Tm) of the amidase” value (Ami1 [1]) was “approximately 2 °C”.

For `Nc1ccccc1-c1nnn[nH]1` [inhibitor II], the “concentration from which inhibition of the hydrolytic activity of Ami1Mab was observed” value (Ami1Mab) is given as no less than 800 µM.
